Measurements published in patent US9682141B2, “Combination of kinase inhibitors and uses thereof” (INTELLIKINE LLC, priority 2011, dated 2017).

Key:
Assay type in all cases: biochemical
PI3K α = PI3K α (Homo sapiens (Human), UniProt P42336); assay: PI 3-Kinase (human) HTRF assay, p110α/p85α
Procedure: (§1) An exemplary system is PI 3-Kinase (human) HTRF™ Assay from Upstate. […] Briefly, the assay is a time resolved FRET assay that indirectly measures PIP3 product formed by the activity of a PI3-K. The kinase reaction is performed in a microtitre plate (e.g., a 384 well microtitre plate). The total reaction volume is approximately 20 ul per well. In the first step, each well receives 2 ul of test compound in 20% dimethylsulphoxide resulting in a 2% DMSO final concentration. Next, approximately 14.5 ul of a kinase/PIP2 mixture (diluted in 1× reaction buffer) is added per well for a final concentration of 0.25-0.3 ug/ml kinase and 10 μM PIP2. The plate is sealed and incubated for 15 minutes at room temperature. To start the reaction, 3.5 ul of ATP (diluted in 1× reaction buffer) is added per well for a final concentration of 10 μM ATP. The plate is sealed and incubated for 1 hour at room temperature. The reaction is stopped by adding 5 ul of Stop Solution per well and then 5 ul of Detection Mix is added per well. The plate is sealed, incubated for 1 hour at room temperature, and then read on an appropriate plate reader. Data is analyzed and IC50s are generated using GraphPad Prism 5. For PI3K α, β, δ, and γ, the nM concentration of inhibitor to reach IC50 is provided.

PI3K β = PI3K β (Homo sapiens (Human), UniProt P42338); assay: PI 3-Kinase (human) HTRF assay, p110β/p85α
PI3K δ = PI3K δ (Homo sapiens (Human), UniProt O00329); assay: PI 3-Kinase (human) HTRF assay, p110δ/p85α
Chain of PI3K δ (O00329 whole entry): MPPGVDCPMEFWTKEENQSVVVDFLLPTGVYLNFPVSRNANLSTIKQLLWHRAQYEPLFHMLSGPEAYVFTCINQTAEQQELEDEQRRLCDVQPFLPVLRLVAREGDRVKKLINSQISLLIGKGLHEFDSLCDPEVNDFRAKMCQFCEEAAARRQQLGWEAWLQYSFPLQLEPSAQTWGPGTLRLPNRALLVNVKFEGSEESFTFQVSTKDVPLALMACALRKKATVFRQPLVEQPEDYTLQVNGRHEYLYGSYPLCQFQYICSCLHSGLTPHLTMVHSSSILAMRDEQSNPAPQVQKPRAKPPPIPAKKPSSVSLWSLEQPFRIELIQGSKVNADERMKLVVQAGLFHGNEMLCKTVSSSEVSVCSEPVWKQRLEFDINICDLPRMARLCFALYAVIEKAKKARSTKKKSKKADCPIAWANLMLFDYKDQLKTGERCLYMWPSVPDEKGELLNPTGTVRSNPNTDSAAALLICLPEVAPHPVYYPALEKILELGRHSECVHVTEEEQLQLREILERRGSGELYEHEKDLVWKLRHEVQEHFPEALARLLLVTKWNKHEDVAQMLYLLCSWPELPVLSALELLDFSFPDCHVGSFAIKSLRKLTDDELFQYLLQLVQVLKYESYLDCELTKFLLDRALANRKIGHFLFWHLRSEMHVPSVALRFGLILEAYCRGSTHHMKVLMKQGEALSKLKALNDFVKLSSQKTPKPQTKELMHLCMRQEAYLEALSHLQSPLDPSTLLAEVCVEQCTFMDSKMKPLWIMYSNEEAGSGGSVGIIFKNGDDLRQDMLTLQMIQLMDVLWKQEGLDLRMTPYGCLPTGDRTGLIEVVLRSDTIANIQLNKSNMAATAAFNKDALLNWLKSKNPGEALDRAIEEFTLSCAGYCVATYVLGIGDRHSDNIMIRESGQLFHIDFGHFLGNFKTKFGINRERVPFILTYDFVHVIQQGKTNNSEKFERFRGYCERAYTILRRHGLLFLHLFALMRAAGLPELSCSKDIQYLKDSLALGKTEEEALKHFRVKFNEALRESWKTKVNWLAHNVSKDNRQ
Chain of PI3K δ (P27986 whole entry partner): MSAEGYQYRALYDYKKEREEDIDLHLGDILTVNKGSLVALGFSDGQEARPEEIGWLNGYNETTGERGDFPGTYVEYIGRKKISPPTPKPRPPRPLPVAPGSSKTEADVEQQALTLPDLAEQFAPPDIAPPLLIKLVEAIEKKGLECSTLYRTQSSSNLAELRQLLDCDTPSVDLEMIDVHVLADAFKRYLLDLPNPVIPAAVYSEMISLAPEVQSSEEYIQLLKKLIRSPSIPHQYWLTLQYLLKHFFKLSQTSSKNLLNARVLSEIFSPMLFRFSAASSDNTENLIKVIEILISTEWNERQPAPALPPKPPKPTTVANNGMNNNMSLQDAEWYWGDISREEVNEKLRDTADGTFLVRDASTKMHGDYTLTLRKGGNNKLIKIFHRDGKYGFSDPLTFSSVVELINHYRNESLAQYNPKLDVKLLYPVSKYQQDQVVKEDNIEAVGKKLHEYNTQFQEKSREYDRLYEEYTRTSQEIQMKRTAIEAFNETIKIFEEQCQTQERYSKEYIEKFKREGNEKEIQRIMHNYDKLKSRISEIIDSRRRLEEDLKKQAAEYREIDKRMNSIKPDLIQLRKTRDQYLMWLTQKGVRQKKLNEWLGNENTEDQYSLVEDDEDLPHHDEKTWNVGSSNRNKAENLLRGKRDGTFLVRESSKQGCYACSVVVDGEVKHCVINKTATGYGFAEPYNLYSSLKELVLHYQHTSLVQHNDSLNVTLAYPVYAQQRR
Procedure: as §1

PI3K γ = PI3K γ (Homo sapiens (Human), UniProt P48736); assay: PI 3-Kinase (human) HTRF assay, p110γ; details: read-out: PI3K γ IC50
Chain of PI3K γ (P48736 whole entry): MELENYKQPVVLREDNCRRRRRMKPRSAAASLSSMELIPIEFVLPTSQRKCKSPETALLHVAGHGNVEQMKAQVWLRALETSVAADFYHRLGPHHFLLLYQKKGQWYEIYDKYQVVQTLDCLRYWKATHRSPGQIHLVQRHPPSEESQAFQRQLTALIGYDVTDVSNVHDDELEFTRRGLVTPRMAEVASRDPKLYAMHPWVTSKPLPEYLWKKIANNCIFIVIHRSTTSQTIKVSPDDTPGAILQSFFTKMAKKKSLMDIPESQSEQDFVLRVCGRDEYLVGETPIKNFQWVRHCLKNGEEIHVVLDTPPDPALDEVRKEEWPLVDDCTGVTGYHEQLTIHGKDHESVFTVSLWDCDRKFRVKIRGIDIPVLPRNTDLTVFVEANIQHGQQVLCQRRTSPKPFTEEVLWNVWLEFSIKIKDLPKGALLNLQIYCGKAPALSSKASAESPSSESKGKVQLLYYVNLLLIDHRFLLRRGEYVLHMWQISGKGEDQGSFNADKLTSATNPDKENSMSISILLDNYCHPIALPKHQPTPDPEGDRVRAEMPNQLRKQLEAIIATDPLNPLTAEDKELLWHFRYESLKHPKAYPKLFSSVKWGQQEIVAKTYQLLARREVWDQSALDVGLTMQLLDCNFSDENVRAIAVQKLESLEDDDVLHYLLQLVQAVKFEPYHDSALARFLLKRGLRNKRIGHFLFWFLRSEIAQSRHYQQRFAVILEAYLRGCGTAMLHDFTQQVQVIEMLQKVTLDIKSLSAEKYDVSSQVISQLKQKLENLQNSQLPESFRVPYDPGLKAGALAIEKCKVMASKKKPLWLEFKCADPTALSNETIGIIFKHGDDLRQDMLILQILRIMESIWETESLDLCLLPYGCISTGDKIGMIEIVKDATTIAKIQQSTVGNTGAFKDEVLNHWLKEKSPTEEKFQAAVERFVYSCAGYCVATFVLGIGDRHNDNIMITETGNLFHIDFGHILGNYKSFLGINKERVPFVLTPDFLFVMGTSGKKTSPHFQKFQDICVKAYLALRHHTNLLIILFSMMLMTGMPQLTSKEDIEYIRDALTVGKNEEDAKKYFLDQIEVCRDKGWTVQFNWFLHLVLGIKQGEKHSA

Chain of PI3K α (P42336 whole entry): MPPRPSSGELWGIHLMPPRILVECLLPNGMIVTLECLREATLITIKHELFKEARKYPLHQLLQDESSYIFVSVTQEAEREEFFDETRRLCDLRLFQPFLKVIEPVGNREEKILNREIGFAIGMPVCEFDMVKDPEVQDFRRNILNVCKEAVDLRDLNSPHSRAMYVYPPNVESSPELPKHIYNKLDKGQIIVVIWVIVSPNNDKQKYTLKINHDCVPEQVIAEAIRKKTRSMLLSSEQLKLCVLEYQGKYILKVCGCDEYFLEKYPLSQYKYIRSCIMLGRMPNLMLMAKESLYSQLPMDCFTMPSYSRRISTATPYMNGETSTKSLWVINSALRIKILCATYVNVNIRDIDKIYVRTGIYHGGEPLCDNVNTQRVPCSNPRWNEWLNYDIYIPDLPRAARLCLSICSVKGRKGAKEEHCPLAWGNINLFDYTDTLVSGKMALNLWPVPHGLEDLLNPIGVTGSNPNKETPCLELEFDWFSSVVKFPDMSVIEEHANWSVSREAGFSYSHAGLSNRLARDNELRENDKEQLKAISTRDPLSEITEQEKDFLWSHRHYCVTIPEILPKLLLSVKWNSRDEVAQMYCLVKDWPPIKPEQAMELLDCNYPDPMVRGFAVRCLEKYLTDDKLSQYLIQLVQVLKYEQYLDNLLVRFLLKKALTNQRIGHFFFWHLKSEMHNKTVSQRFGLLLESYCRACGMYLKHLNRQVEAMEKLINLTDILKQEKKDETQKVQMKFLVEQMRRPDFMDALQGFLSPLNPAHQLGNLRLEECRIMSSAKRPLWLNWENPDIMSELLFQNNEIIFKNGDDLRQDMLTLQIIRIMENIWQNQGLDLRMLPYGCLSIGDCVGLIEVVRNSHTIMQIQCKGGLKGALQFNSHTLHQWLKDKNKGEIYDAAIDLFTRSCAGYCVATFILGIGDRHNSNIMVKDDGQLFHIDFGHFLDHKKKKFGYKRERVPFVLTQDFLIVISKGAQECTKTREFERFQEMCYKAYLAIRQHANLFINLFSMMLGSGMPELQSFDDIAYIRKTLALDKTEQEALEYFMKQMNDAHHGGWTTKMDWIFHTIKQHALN
Chain of PI3K α (P27986 whole entry partner): as the sequence (P27986 whole entry partner) above
Chain of PI3K β (P42338 whole entry): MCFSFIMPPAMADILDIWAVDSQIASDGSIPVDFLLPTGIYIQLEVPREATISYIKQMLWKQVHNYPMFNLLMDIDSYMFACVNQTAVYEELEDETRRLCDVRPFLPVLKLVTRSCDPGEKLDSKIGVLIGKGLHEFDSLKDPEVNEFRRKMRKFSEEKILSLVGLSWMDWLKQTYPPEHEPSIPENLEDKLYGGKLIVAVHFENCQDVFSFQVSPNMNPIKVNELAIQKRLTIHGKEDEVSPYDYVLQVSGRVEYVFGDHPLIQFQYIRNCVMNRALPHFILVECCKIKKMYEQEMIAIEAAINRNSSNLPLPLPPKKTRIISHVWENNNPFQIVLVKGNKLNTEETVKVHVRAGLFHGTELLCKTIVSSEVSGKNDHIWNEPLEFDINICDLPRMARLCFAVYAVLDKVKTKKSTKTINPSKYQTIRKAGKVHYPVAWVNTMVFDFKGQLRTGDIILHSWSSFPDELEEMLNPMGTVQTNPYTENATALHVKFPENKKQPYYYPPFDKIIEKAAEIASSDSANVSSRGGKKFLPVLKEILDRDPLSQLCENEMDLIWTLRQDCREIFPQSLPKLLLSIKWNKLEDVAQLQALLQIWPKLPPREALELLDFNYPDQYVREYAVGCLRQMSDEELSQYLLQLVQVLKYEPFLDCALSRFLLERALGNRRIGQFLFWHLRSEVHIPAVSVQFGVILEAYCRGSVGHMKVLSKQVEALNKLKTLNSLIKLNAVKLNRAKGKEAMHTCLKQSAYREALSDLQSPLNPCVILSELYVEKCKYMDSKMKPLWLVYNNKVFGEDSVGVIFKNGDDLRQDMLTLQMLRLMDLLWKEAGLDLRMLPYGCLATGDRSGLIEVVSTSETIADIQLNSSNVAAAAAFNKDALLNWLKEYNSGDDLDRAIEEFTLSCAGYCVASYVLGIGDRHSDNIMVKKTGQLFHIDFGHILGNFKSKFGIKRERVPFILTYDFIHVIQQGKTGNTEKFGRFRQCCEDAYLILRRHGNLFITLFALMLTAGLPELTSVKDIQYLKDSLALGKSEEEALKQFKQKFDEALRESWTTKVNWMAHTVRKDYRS
Chain of PI3K β (P27986 whole entry partner): as the sequence (P27986 whole entry partner) above

Structure (SMILES) | IC50 (PI3K α) [nM] | IC50 (PI3K β) [nM] | IC50 (PI3K δ) [nM] | IC50 (PI3K γ) [nM]
Nc1nc2cc(-c3ccc4ncc(N5CCS(=O)(=O)CC5)nc4c3)ccc2o1 | < 100 | > 10000 | > 10000 | < 100
C[C@H]1COCCN1c1cnc2ccc(-c3ccc4oc(N)nc4c3)nc2n1 | < 100 | < 10000 | > 10000 | < 100
C[C@@H]1COCCN1C1CN(c2cnc3ccc(-c4ccc5oc(N)nc5c4)nc3n2)C1 | < 10000 | > 10000 | > 10000 | < 10000
CC1(C)CN(C2CN(c3cnc4ccc(-c5ccc6oc(N)nc6c5)nc4n3)C2)CCO1 | < 1000 | > 10000 | > 10000 | < 10000
Nc1nc2cc(-c3ccc4ncc(C(=O)NC5CCOCC5)n4c3)ccc2o1 | < 100 | < 10000 | < 100 | < 100
Nc1nc2cc(-c3ccc4ncc(N5CCN(C(=O)[C@@H]6CCCN6)CC5)nc4c3)ccc2o1 | < 100 | < 100 | < 100 | < 100
Nc1nc2cc(-c3ccc4ncc(N5CCC(O)CC5)nc4c3)ccc2o1 | < 100 | < 10000 | < 1000 | < 1000
Nc1nc2cc(-c3ccc4ncc(N5CCC(O)CC5)cc4n3)ccc2o1 | < 100 | < 10000 | < 10000 | < 1000
C[C@@H]1COCCN1c1cnc2ccc(-c3ccc4oc(N)nc4c3)nc2n1 | < 100 | < 10000 | < 10000 | < 100
CN1CCC(NC(=O)c2cnc3ccc(-c4ccc5oc(N)nc5c4)cn23)CC1 | < 100 | < 1000 | < 100 | < 1000
Cn1cc(-c2cnc3ccc(-c4ccc5oc(N)nc5c4)cc3n2)cn1 | < 100 | < 1000 | < 10000 | < 100
CNC(=O)N1CCN(c2cnc3ccc(-c4ccc5oc(N)nc5c4)cc3n2)CC1 | < 100 | < 1000 | < 10000 | < 100
Nc1nc2cc(-c3ccc4ncn(C5CCOCC5)c4c3)ccc2o1 [Compound 48] | < 10000 | > 10000 | > 10000 | > 10000
CN1CCN(C(=O)c2cnc3cnc(-c4ccc5oc(N)nc5c4)cn23)CC1 | < 10000 | > 10000 | > 10000 | > 10000
C[C@H](N)C(=O)N1CCN(c2cnc3ccc(-c4ccc5oc(N)nc5c4)nc3n2)CC1 | < 100 | < 100 | < 100 | < 100
Nc1nc2cc(-c3ccc4ncc(N[C@H]5CC[C@H](O)CC5)nc4c3)ccc2o1 | < 100 | < 10000 | < 100 | < 100
CS(=O)(=O)CCN1CCN(c2cnc3ccc(-c4ccc5oc(N)nc5c4)cc3n2)CC1 | < 100 | < 1000 | < 10000 | < 1000
Nc1nc2cc(-c3ccc4ncc(-c5ccccn5)nc4c3)ccc2o1 | < 1000 | < 10000 | > 10000 | < 100
CC(C)(C)N1CCN(c2cnc3ccc(-c4ccc5oc(N)nc5c4)cc3n2)CC1 | < 100 | < 1000 | < 1000 | < 1000
C[C@@H]1CN(c2cnc3ccc(-c4ccc5oc(N)nc5c4)cc3n2)C[C@H](C)O1 | < 1000 | > 10000 | > 10000 | < 10000
Nc1nsc2ccc(-c3ccc4nccc(-c5ccncc5)c4c3)cc12 [Compound 12] | > 10000 | > 10000 | > 10000 | > 10000
Nc1nc2cc(-c3ccc4ncc(N5CCN(CCO)CC5)nc4c3)ccc2o1 | < 100 | < 100 | < 10000 | < 1000
Nc1nc2cc(-c3ccc4ncc(C(=O)N5CCS(=O)(=O)CC5)n4c3)ccc2o1 | < 1000 | > 10000 | > 10000 | < 10000
CS(=O)(=O)N1CCC(Nc2cnc3ccc(-c4ccc5oc(N)nc5c4)cc3n2)CC1 | < 100 | < 10000 | < 100 | < 100
Nc1nc2cc(-c3ccc4ncc(N5CCOCC5)nc4c3)ccc2s1 | < 100 | < 1000 | > 10000 | < 1000
Nc1nc2cc(-c3ccc4ncc(NC5CCOCC5)nc4c3)ccc2o1 | < 100 | < 10000 | < 1000 | < 100
CN1CCC(N(C)C(=O)c2cnc3ccc(-c4ccc5oc(N)nc5c4)cn23)CC1 | < 1000 | < 10000 | < 10000 | > 10000
CN1CCN(C(=O)c2cnc3ccc(-c4ccc5oc(N)nc5c4)nn23)CC1 | < 10000 | > 10000 | > 10000 | < 10000
